Data on two molecules can be found in patent publication US20210260102A1, “TUNABLE IMMUNE RESPONSIVE BIODEGRADABLE ARGININE-BASED POLY(ESTER AMIDE)S AND METHODS OF MAKING AND USING SAME” (Cornell University, priority 2018, published 2021).

For data set [1] the following is noted: neutral pH; cited from earlier work.
Data set [2] has as its system RAW 264.7 cells. Put plainly: NO production of macrophages (Griess reagent). In kind it is cell-based, murine. To be noted: CAM (LPS+IFN-γ), 24 h.
Data set [3] has as its system RAW 264.7 cells. Put plainly: Arginase activity assay of treated macrophages. To be noted: 2 mg/mL, 24 h.
Experimental: 4×10^5 RAW 264.7 cells in each well were incubated in 400 μL DMEM media contains 10% FBS in 24 well plates for 24 h. […] For CAM or AAM group, treatments contained either 100 U/mL recombinant mouse interferon-γ (IFN-γ, 1.25×10^7 U/mg, Shenandoah Biotechnology, PA) plus 100 ng/mL lipopolysaccharide (LPS, Sigma-Aldrich) or 20 ng/mL recombinant mouse interleukin-4 (IL-4, Shenandoah Biotechnology, PA) respectively to induce different activation phenotype. Resting Macrophages, CAM and AAM incubated in DMEM contains 5% FBS without treatments were used as controls.
The arginase activity assay is tested colorimetrically. The cells were washed with PBS and lysed by 200 μL 0.2% Triton X-100 in 20 mM Tris-HCl, pH 7.5 containing 20 g pepstatin A, 20 μg aprotinin and 20 μg leupeptin as protease inhibitors. After the cell was lysed, 200 μL 10 mM MnCl2 was added and the enzyme was activated for 10 minutes at 55° C. 100 μL aliquot of the activated lysate was mixed with 100 μL 0.5 M Arg and incubated at 37° C. for 1 h. […] After being cooled to room temperature, the absorbance of 200 μL mixture solution at 540 nm was tested in 96 well plates. […] The NO production and the arginase activity in three replicate wells of each condition were tested and the mean value was calculated with standard deviations.

For N-nitro-L-arginine [NOArg], in data set [1], the water solubility was around 0.87 mg/mL.

Turning to `N=C(N)NCCC[C@H](N)C(=O)O` [Arg, L-arginine], the “NO production of CAM” value was found to be 42.5 ± 2.6 µM in the data set on RAW 264.7 cells [2] (1 mg/mL) and 50.7 ± 1.1 µM in the data set on RAW 264.7 cells [2] (2 mg/mL). In addition, the “arginase activity of CAM” value with RAW 264.7 cells [3] came to 17.9±0.7 U.
